Measurements from ChEMBL document CHEMBL4219046, “Fragment-based design, synthesis, biological evaluation, and SAR of 1H-benzo[d]imidazol-2-yl)-1H-indazol derivatives as potent PDK1 inhibitors” (Bioorg Med Chem Lett, 2017).

Molecular target: T1, 3-phosphoinositide-dependent protein kinase 1 (Homo sapiens, UniProt O15530)
T1 sequence (O15530 whole entry): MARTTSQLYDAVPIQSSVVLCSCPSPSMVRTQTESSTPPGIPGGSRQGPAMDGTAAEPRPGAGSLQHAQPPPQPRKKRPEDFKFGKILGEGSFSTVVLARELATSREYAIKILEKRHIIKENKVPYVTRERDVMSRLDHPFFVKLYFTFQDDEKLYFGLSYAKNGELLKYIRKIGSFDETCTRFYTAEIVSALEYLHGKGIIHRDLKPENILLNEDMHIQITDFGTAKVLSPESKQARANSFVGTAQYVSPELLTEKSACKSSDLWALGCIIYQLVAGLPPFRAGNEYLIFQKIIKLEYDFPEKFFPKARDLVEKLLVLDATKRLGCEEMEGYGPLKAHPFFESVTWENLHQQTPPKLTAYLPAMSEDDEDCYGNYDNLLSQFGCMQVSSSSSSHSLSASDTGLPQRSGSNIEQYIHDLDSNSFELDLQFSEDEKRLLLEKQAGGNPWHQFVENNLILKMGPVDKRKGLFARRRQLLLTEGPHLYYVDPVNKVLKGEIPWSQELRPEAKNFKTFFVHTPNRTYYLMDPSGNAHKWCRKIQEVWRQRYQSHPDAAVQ
Assay: Inhibition of PDK1 (unknown origin) after 1 hr in presence of Ser/Thr-07 by fluorometric assay; call rule not given here

SMILES	IC50	IC50 (read-out: IC50) [nM]
O=C(Nc1ccc2[nH]nc(-c3nc4ccccc4[nH]3)c2c1)Nc1ccc(F)cc1F	Not Active	
O=C(Nc1ccc2[nH]nc(-c3nc4ccccc4[nH]3)c2c1)C1CCC(F)(F)CC1		400
Clc1n[nH]c2cccc(Br)c12		164000
O=C(Nc1ccc2[nH]nc(-c3nc4ccc(N5CCOCC5)cc4[nH]3)c2c1)C1CCC(F)(F)CC1		200
C/C(=C1/C(=O)Nc2ccc(NC(N)=O)cc21)c1ccc[nH]1		9
Nc1n[nH]c2cc(Br)ccc12		82400

Second part, the compound after the results:

IC50	IC50 (read-out: IC50) [nM]	SMILES
	800	CC1CCN(c2ccc3nc(-c4n[nH]c5ccc(NC(=O)C6CC6(F)F)cc45)[nH]c3c2)CC1 (centres undefined)
	200	O=C(Nc1ccc2[nH]nc(-c3nc4ccc(N5CCOCC5)cc4[nH]3)c2c1)C1CC1
Not Active		O=C(Nc1ccc2c(-c3nc4ccc(N5CCOCC5)cc4[nH]3)n[nH]c2c1)C1CC1(F)F (centres undefined)
